Legend:
[1] = in vivo; cited from earlier work
[2] = system: DMM mouse model for OA; experiment: Cartilage degeneration scoring of safranin-O stained joint sections in DMM mouse model for OA; assay type: in vivo
Experimental: Histologic outcomes: 20 wks after DMM, mice are sacrificed, and OA assessed histologically by a blinded examiner scoring cartilage degeneration through Safranin-O stained sections, and scoring synovitis and osteophytes through H&E stained sections.
Treatment with pharmacologic agents. Beginning 24 hrs after DMM, mice (n=10 per experimental arm) are treated by injection or oral gavage for 12 wks with either vehicle, or one of the agents as detailed in Table 1.
Histologic analysis. Histologic analysis of mouse stifle joints occurs 20-wks after surgery. Cartilage degeneration is assessed through scoring of Safranin-O stained sections and synovitis and osteophyte formation assessed through scoring of H&E stained sections. Significance was assessed by unpaired 2-tailed Mann-Whitney U test, with *P<0.05, **P<0.01, ***P<0.001.
After 12 weeks of treatment, mice were sacrificed, and the stifle joints harvested for histologic analysis, and safranin-O stained joint tissue sections were scored by a blinded examiner for the degree of cartilage degeneration. […] Significance was assessed by unpaired 2-tailed Mann-Whitney U test, with *P<0.05, **P<0.01, ***P<0.001, N.S. non-significant.
After 12 weeks of treatment, mice were sacrificed, and the stifle joints harvested for histologic analysis, and safranin-O stained joint tissue sections were scored by a blinded examiner for the degree of cartilage degeneration. […] Significance was assessed by unpaired 2-tailed Mann-WhitneyU test, with *P<0.05, **P<0.01, ***P<0.001.
Mice were then sacrificed, and the stifle joints harvested for histologic analysis. (A) Safranin-O stained joint tissue sections were scored by a blinded examiner for the degree of cartilage degeneration. (B) Representative safranin-O stained sections from each group are presented. […] Significance was assessed by unpaired 2-tailed Mann-Whitney U test, with *P<0.05, **P<0.01, ***P<0.001.

[3] = system: human OA synovial tissue organoid; experiment: Human OA synovial tissue organoid stimulation assay (qPCR); assay type: cell-based; details: rupatadine 1 μM, fenofibrate 1 μM or both; 24 hr with human OA synovial fluid; vs vehicle
Experimental: Human OA synovium was obtained at the time of arthroplasty and cultured overnight in tissue culture medium with human OA synovial fluid.
The arthroplasty synovium was then washed with media, cut into approximately 2 mm pieces, and individual organoid pieces further stimulated for 24 hr with human OA synovial fluid in the presence of the test small molecule compounds and combinations including: vehicle control; rupatadine 1 μM; fenofibrate 1 μM; or rupatadine 1 μM+fenofibrate 1 μM. The organoids were then harvested, total RNA extracted, reverse transcription performed, followed by qPCR to quantitate levels of RNA encoding the inflammatory lipid PAF biosynthesis enzyme (Ipcat2) gene expression as well as PAF receptor (ptafr) gene expression.

CC(C)(Oc1ccc(CCNC(=O)c2ccc(Cl)cc2)cc1)C(=O)O [Bezafibrate]
Bioavailability [1]: 100%

O=C1[C@H](CC[C@H](O)c2ccc(F)cc2)[C@@H](c2ccc(O)cc2)N1c1ccc(F)cc1 [Ezetimibe]
Bioavailability [1]: variable

CC(C)c1c(C(=O)Nc2ccccc2)c(-c2ccccc2)c(-c2ccc(F)cc2)n1CC[C@@H](O)C[C@@H](O)CC(=O)O [Atorvastatin]
prevention of OA (quantification of cartilage degeneration 20 wks post-DMM) ([2]; C57BL/6J wild-type mice, atorvastatin 0.5 mg/kg for 12 wks following DMM vs vehicle, p=0.0513): does not prevent OA
development / severity of OA following DMM ([2]; mice, dose not given at place): failure of atorvastatin to prevent OA

CCc1ccc(CCOc2ccc(CC3SC(=O)NC3=O)cc2)nc1 (stereo not shown) [Pioglitazone]
Bioavailability [1]: 83%

Cc1cncc(CN2CCC(=C3c4ccc(Cl)cc4CCc4cccnc43)CC2)c1 [Rupatadine]
PAF receptor (ptafr) gene expression [3]: decreased
inflammatory lipid PAF biosynthesis enzyme (Ipcat2) gene expression [3]: decreased
severity / development of OA (cartilage degeneration scores) ([2]; C57Bl/6 mice, oral gavage from 1 week after DMM for 3 months, rupatadine 20 μg, fenofibrate 40 μg, or both): decreased the severity of OA
severity of OA-related cartilage degeneration following DMM ([2]; WT mice, vs vehicle (combination also vs either drug alone), Example 1, dose not given at place): significantly less severe OA-related cartilage degeneration

Cc1ccc(C)c(OCCCC(C)(C)C(=O)O)c1 [Gemfibrozil]
Bioavailability [1]: 100%
